Legend:
[1] = DMP433 (N-nitroso-ribociclib) content in ribociclib base (B10) and ribociclib succinate (B12, drug substance) batches and process experiments, LC-MS/MS or HPLC-HRMS; assay type: physicochemical; settings: for DMP433 [ppm] LOQ (0.0625 ppm) / DMP433 [ppm], result in brackets (extrapolation, estimate of actual value below LOQ): ribociclib base (LEE011 B10); for DMP433 in LEE011 B12: laboratory scale salt formation; for DMP433 in LEE011-B12 (IP): nitrite in IPA 1.6 ppb; for DMP433 (LOQ: 30 ppb): LEE011-B10, laboratory scale 30 g experiments; for DMP433 in B10: starting material of 5 kg technical batches
Source text: The method of testing for the presence and/or total amount of nitrosamines (such as the presence and/or total amount of N-nitroso-ribociclib in free or salt form) that is used in the methods of the invention may be any method which allows for the detection of nitrosamines in a composition. For example, the method may involve the Griess test described above. In such a method, the nitrosamines may be first denitrosated (e.g., by photolysis) to form a nitrite, which is then detected in the Griess test. Alternatively, the method may include high performance liquid chromatography (HPLC)- and/or gas chromatography (GC)-mass spectroscopy. An example of a method of testing for the presence and amount of nitrosamines (namely N-nitroso-ribociclib) is provided herein as Example 14. […]
2.7. […] Dissolve the substance using vortex and fill to volume with solvent (50% MeOH). • 3. Filter through 0.2 μm PVDF (polyvinylidene difluoride) or PTFE (polytetrafluoroethylene) filter into a HPLC amber vial, discard the first 0.5 ml.
A calibration curve for DMP433 is created, using calibration standard solutions L1-L6, and expressing the relationship between responses (peak areas) and standard concentrations (ng/ml). For L1, the average of 6 injections is used. Linear regression is weighed with 1/amount. […]

[2] = Nitrite content (ion chromatography; LC-FLD with DAN derivatisation; Griess test) in drug substance, intermediates, reagents, solvents, filters, excipients; assay type: physicochemical; settings: for Nitrite in LEE011 B12: laboratory scale salt formation; for Nitrite (LOQ: 0.1 ppm) / Nitrite, value in brackets below LOQ: LEE011-B10, laboratory scale 30 g experiments; for Nitrite (ppb): LEE011-DS, further testing
Source text: The method of testing for the presence and/or total amount of nitrites that is used in the methods of the invention may be any method which allows for the detection and/or quantitation of nitrites in a composition. For example, the method may be the Griess test. The Griess test allows for the detection and analysis of nitrite by the formation of a red-pink colour upon treatment of a nitrite-containing sample with the Griess reagent. The Griess reagent consists of two components in an acidic solution: an aniline derivative and a coupling agent. The most common arrangements use sulfanilamide and N-(1-naphthyl)ethylenediamine. For example 0.2% N-(1-naphthyl)ethylenediamine dihydrochloride and 2% sulfanilamide in 5% phosphoric acid may be used as a Griess reagent. Other aniline derivatives that may be used in a Griess reagent include sulfanilic acid, nitroaniline, and p-aminoacetophenone.
The Griess test involves two subsequent reactions, as shown in the scheme below. When the aniline derivative (e.g., sulfanilamide) is added, the nitrite ion reacts with it in the Griess diazotization reaction to form a diazonium salt, which then reacts with N-(1-naphthyl)ethylenediamine in an azo-coupling reaction, forming a pink-red azo-dye. Using a spectrophotometer, the nitrite concentration can then be quantitatively detected.
Additionally purified water; e.g. Milli Q • 2.
• 10 mM KH2PO4 Weigh accurately about 1.361 g of KH2PO4 into a 1 L volumetric flask, dissolve it in approximately 950 mL of additionally purified water and adjust the pH to 8.0 (with 2.7 M NaOH). Make up to the mark with additionally purified water. • 0.62 M HCl Add a few millilitres (e.g. 20 mL) of additionally purified water to a 200 mL volumetric flask, add 10.280 mL of concentrated HCl, mix and make up to the mark with additionally purified water. • 2.7 M NaOH Weigh accurately about 1.092 g of NaOH pellets into a 10 mL volumetric flask and dissolve it in additionally purified water. Cool to room temperature and make up to the mark with the same solvent. • Reagent DAN Weigh accurately about 5 mg of 2,3-diaminophthalene into a 100 mL volumetric flask and dissolve it with the solvent (methanol/water 1:1 (v/v)). Dilute up to the mark and ensure visual full dissolution. Use an amberglass flask. • Mobile phase A Mix 950 mL of 10 mM KH2PO4 solution (pH=8) and add 50 mL methanol. • Mobile phase B Methanol. • Solvent Methanol/water 1:1 (v/v), e.g. mix 2000 mL of additionally purified water and 2000 mL methanol.
• Instrument: HPLC with FLR detector; e.g. Waters Arc or equivalent • Column: C18 50×4.6 mm, 2.5 μm, e.g. XBridge C18 2.5 μm, 4.650 mm or equivalent
• Notes It is recommended to wear additional protective equipment (face mask and gloves) during weighing. • It is recommended to wash the column with 50% methanol after the analysis (example of preparation: mix 500 mL methanol and 500 m1 of additionally purified water). • It is recommended to rinse the injector with solvent after each injection. • All glassware and tools should be rinsed with additionally purified water before use. It is not recommended to leave the solutions open for a longer time before measurement. • Blank solution 1 Transfer 1 mL of solvent into a HPLC vial and perform derivatization as described below. • Blank solution 2 Transfer 10 mL of solvent into a single use glass vial and mix it on a magnetic stirrer for 30 min. Transfer the solution into a 5 mL centrifuge tube and centrifuge for 10 min at 12000 rpm. […] Fill up to the mark with solvent and mix. • (Cnitrite≈0.0005 mg/mL) • Comparison solution Transfer 10 mL of nitrite stock solution into a 500 mL volumetric flask. • (2 parallels) Fill up to the mark with solvent and mix. • Transfer 1 mL solution into a HPLC vial and perform the derivatization as described below. • (Cnitrite≈100 ppb) • Sample solution Accurately weigh about 1000 mg of the sample into a glass vial for single use and add 10 mL of solvent.

[3] = ribociclib base (LEE011 B10), ion chromatography
[4] = additional batches of ribociclib base LEE011-B10 (IP-1)
[5] = nitrite in iPrOH <5 ppb (1.3 ppb extrapolated)
[6] = nitrite in iPrOH <5 ppb (3.1 ppb extrapolated)
[7] = starting material used in the theoretical calculation
[8] = laboratory use test, salt formation B10 to B12 with filter parts added (filter per experiment), AS&T LJ LC-MS/MS
[9] = laboratory use test, salt formation B10 to B12 with filter parts added, QLS LJ LC-FLD/DAN

CN(C)C(=O)c1cc2cnc(Nc3ccc(N4CCNCC4)cn3)nc2n1C1CCCC1 [Batch 805193A072]
DMP433 [ppm] LOQ (0.0625 ppm) [1]: LOQ | DMP433 [ppm], result in brackets (extrapolation, estimate of actual value below LOQ) [1]: 0.060 ppm | Nitrite [ppm] LOD (1 ppm) [2, 3]: <LOD

CN(C)C(=O)c1cc2cnc(Nc3ccc(N4CCNCC4)cn3)nc2n1C1CCCC1 [Batch 805193A073]
DMP433 [ppm] LOQ (0.0625 ppm) [1]: LOQ | DMP433 [ppm], result in brackets (extrapolation, estimate of actual value below LOQ) [1]: 0.030 ppm | Nitrite [ppm] LOD (1 ppm) [2, 3]: <LOD

CN(C)C(=O)c1cc2cnc(Nc3ccc(N4CCNCC4)cn3)nc2n1C1CCCC1 [Batch 805193A074]
DMP433 [ppm] LOQ (0.0625 ppm) [1]: LOQ | DMP433 [ppm], result in brackets (extrapolation, estimate of actual value below LOQ) [1]: 0.029 ppm | Nitrite [ppm] LOD (1 ppm) [2, 3]: <LOD

CN(C)C(=O)c1cc2cnc(Nc3ccc(N4CCNCC4)cn3)nc2n1C1CCCC1 [Batch 805193A077]
DMP433 [ppb] [1, 4]: 51 ppb | Nitrite [ppm] LOD (1 ppm) [2, 4]: <LOD

CN(C)C(=O)c1cc2cnc(Nc3ccc(N4CCNCC4)cn3)nc2n1C1CCCC1 [Batch 805193A078]
DMP433 in LEE011-B10 ([1]; B10 starting material of resin experiments): DMP433: 92 ppb | DMP433 [ppb] [1, 4]: 78 ppb | DMP433 in LEE011 B12 ([1]; nitrite in iPrOH 119.6 ppb): 14238 ppb | DMP433 in LEE011 B12 ([1]; nitrite in iPrOH 162.7 ppb): 18011 ppb | DMP433 in LEE011 B12 [1, 5]: 995 ppb | DMP433 in LEE011 B12 [1, 6]: 1513 ppb | DMP433 in LEE011-B12 (IP) ([1]; resin treatment of B10/IPA solution): 220 ppb | DMP433 in LEE011-B12 (IP) ([1]; resin treatment only IPA (nitrite carryover from B10 remained)): 528 ppb | Nitrite [ppm] LOD (1 ppm) [2, 4]: <LOD | Nitrite in LEE011 B12 [2, 5]: 448 ppb | Nitrite in LEE011 B12 [2, 6]: 326 ppb

CN(C)C(=O)c1cc2cnc(Nc3ccc(N4CCNCC4)cn3)nc2n1C1CCCC1 [Batch 805193A095]
DMP433 (LOQ: 30 ppb) [1]: 55.8 ppb | Nitrite (LOQ: 0.1 ppm) [2]: < 0.1 ppm | Nitrite, value in brackets below LOQ [2]: 0.08 ppm

CN(C)C(=O)c1cc2cnc(Nc3ccc(N4CCNCC4)cn3)nc2n1C1CCCC1 [Batch 805193A096]
DMP433 (LOQ: 30 ppb) [1]: 70.5 ppb | Nitrite (LOQ: 0.1 ppm) [2]: < 0.1 ppm | Nitrite, value in brackets below LOQ [2]: 0.05 ppm

CN(C)C(=O)c1cc2cnc(Nc3ccc(N4CCNCC4)cn3)nc2n1C1CCCC1 [Batch 805193A097]
DMP433 (LOQ: 30 ppb) [1]: 73.9 ppb | Nitrite (LOQ: 0.1 ppm) [2]: < 0.1 ppm | Nitrite, value in brackets below LOQ [2]: 0.07 ppm

CN(C)C(=O)c1cc2cnc(Nc3ccc(N4CCNCC4)cn3)nc2n1C1CCCC1 [Batch 805193A098]
DMP433 (LOQ: 30 ppb) [1]: 78.8 ppb | Nitrite (LOQ: 0.1 ppm) [2]: < 0.1 ppm | Nitrite, value in brackets below LOQ [2]: 0.07 ppm

CN(C)C(=O)c1cc2cnc(Nc3ccc(N4CCNCC4)cn3)nc2n1C1CCCC1.O=C(O)CCC(=O)O [Batch 833268A258]
DMP433 [ppb] ([1]; LEE011-DS, further testing): 380 ppb | Nitrite (ppb) [2]: 369 ppb

CN(C)C(=O)c1cc2cnc(Nc3ccc(N4CCNCC4)cn3)nc2n1C1CCCC1.O=C(O)CCC(=O)O [Batch 833268A259]
DMP433 [ppb] ([1]; LEE011-DS, further testing): 395 ppb | Nitrite (ppb) [2]: 284 ppb

CN(C)C(=O)c1cc2cnc(Nc3ccc(N4CCNCC4)cn3)nc2n1C1CCCC1 [Batch 923037A002]
DMP433 [ppm] LOQ (0.0625 ppm) [1]: LOQ | DMP433 [ppm], result in brackets (extrapolation, estimate of actual value below LOQ) [1]: 0.047 ppm | Nitrite [ppm] LOD (1 ppm) [2, 3]: <LOD

CN(C)C(=O)c1cc2cnc(Nc3ccc(N4CCNCC4)cn3)nc2n1C1CCCC1 [Batch 923037A005]
DMP433 [ppm] LOQ (0.0625 ppm) [1]: LOQ | DMP433 [ppm], result in brackets (extrapolation, estimate of actual value below LOQ) [1]: 0.048 ppm | Nitrite [ppm] LOD (1 ppm) [2, 3]: <LOD

CN(C)C(=O)c1cc2cnc(Nc3ccc(N4CCNCC4)cn3)nc2n1C1CCCC1 [Batch B704193]
DMP433 [ppb] [1, 4]: 57 ppb | DMP433 [ppm] LOQ (0.0625 ppm) [1]: LOQ | DMP433 [ppm], result in brackets (extrapolation, estimate of actual value below LOQ) [1]: 0.006 ppm | Nitrite [ppm] LOD (1 ppm) [2, 4]: <LOD

CN(C)C(=O)c1cc2cnc(Nc3ccc(N4CCNCC4)cn3)nc2n1C1CCCC1 [Batch B705468]
DMP433 [ppb] [1, 4]: 130 ppb | DMP433 [ppm] [1, 7]: 0.03 ppm | Nitrite [ppm] LOD (1 ppm) [2, 4]: <LOD | Nitrite [ppm] [2, 7]: <0.1 ppm

CN(C)C(=O)c1cc2cnc(Nc3ccc(N4CCNCC4)cn3)nc2n1C1CCCC1 [LEE011-B10 24003]
DMP433 (ppm) in B10 ([1]; B10 batches on commercial scale, potassium carbonate of different nitrite level): 0.05 ppm | Nitrite [ppm] ([2]; in B10 batches on commercial scale, potassium carbonate of different nitrite level): 0.1 ppm

CN(C)C(=O)c1cc2cnc(Nc3ccc(N4CCNCC4)cn3)nc2n1C1CCCC1.O=C(O)CCC(=O)O [LEE011-cusakal1-021]
DMP433 [ppm] [1, 8]: 1.682 LJ ppm | Nitrite [ppm] [2, 9]: app. 0.26 ppm

CN(C)C(=O)c1cc2cnc(Nc3ccc(N4CCNCC4)cn3)nc2n1C1CCCC1 [LEE011-cusakal1-032]
DMP433 [ppm] [1, 8]: 1.487 ppm | Nitrite [ppm] [2, 9]: app. 0.3 ppm

CN(C)C(=O)c1cc2cnc(Nc3ccc(N4CCNCC4)cn3)nc2n1C1CCCC1.O=C(O)CCC(=O)O [LEE011-cusakal1-033]
DMP433 [ppm] [1, 8]: 1.272 ppm | Nitrite [ppm] [2, 9]: app. 0.3 ppm

CN(C)C(=O)c1cc2cnc(Nc3ccc(N4CCNCC4)cn3)nc2n1C1CCCC1.O=C(O)CCC(=O)O [LEE011-cusakal1-034]
DMP433 [ppm] [1, 8]: 1.789 ppm | Nitrite [ppm] [2, 9]: app. 0.2 ppm

CN(C)C(=O)c1cc2cnc(Nc3ccc(N4CCNCC4)cn3)nc2n1C1CCCC1.O=C(O)CCC(=O)O [LEE011-cusakal1-035]
DMP433 [ppm] [1, 8]: 1.661 ppm | Nitrite [ppm] [2, 9]: app. 0.2 ppm

CN(C)C(=O)c1cc2cnc(Nc3ccc(N4CCNCC4)cn3)nc2n1C1CCCC1.O=C(O)CCC(=O)O [LEE011-cusakal1-036]
DMP433 [ppm] [1, 8]: 2.100 ppm | Nitrite [ppm] [2, 9]: app. 0.3 ppm

CN(C)C(=O)c1cc2cnc(Nc3ccc(N4CCNCC4)cn3)nc2n1C1CCCC1.O=C(O)CCC(=O)O [LEE011-cusakan1-050]
DMP433 [ppm] [1, 8]: 0.530 ppm | Nitrite [ppm] [2, 9]: app. 0.6 ppm

CN(C)C(=O)c1cc2cnc(Nc3ccc(N4CCNCC4)cn3)nc2n1C1CCCC1.O=C(O)CCC(=O)O [Technical batch 1]
DMP433 in B10 [1]: 55.8 ppb

CN(C)C(=O)c1cc2cnc(Nc3ccc(N4CCNCC4)cn3)nc2n1C1CCCC1.O=C(O)CCC(=O)O [Technical batch 2]
DMP433 in B10 [1]: 55.8 ppb | reduction of the amount of DMP433 formed by use of distilled iPrOH ([1]; technical batch 2 (distilled) vs technical batch 1 (non-distilled)): approx. 50%
